Measurements: ChEMBL document CHEMBL1146347, “Carinatumins A-C, new alkaloids from Lycopodium carinatum inhibiting acetylcholinesterase” (Bioorg Med Chem, 2007)

Target: T1, Acetylcholinesterase (Bos taurus, UniProt P23795)
T1 sequence (P23795 whole entry): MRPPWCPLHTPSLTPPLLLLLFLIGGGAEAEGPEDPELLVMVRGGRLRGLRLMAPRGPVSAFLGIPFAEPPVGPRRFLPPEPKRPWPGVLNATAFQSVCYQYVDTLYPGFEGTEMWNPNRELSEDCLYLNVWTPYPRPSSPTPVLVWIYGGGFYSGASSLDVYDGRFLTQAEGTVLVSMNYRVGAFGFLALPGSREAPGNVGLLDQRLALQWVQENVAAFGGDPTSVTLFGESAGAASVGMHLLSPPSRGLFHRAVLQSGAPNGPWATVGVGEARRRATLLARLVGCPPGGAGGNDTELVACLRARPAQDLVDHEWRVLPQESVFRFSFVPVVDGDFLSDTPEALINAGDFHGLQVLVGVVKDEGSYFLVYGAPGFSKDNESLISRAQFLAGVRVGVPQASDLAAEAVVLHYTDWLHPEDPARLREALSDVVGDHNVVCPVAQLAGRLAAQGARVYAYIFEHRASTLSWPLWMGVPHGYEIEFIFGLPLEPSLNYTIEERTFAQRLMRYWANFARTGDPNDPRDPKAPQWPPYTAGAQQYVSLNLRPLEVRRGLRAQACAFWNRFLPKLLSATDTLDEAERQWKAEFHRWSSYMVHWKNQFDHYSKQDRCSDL
Assay: Inhibition of bovine erythrocyte acetylcholinesterase

Row | Structure (SMILES) | IC50
1 | CC1=C[C@H]2Cc3[nH]c(=O)ccc3[C@](N)(C1)/C2=C/CO | 4.6 µM
2 | C[C@H]1C[C@@H](CC2=[N+]([O-])CCCC2)[C@@H]2CCCN[C@H]2C1 | > 100 µM
3 | CC1=C[C@H]2Cc3[nH]c(=O)ccc3[C@]3(C1)NCC[C@@H](O)[C@H]23 [CARINATUMINS B (2)] | 7 µM
